Measurements reported in patent US8877819B2, “Methods for treating heat stress and related compositions” (Georgetown University, priority 2008, dated 2014).

Key:
Zucker Fatty Rats (ZFR) [1] = test: Insulin Challenge Testing (ICT); format: in vivo; conditions: Experiment 1, survivors after heat stress
Procedure: Testing was commenced after 17-19 hours of food deprivation. For ICT, 0.6 unit of regular insulin/kg BW (Eli Lilly Co., Indianapolis, Ind.) was administered, and blood for glucose determination was obtained from the tail vein at 7.5 min after injection. Glucose was estimated using commercial glucose strips (Lifescan, One Touch Ultra, […], Calif.).

Zucker Fatty Rats (ZFR) [2] = test: Intraperitoneal Glucose Tolerance Test (ipGTT); format: in vivo; conditions: Experiment 2; for insulin concentration one hour after the glucose challenge: glucose 2.5 g/kg i.p.; for Baseline insulin concentration / average baseline glucose level: ipGTT baseline
Procedure: During the ipGTT, glucose (2.5 g/kg BW) was injected intraperitoneally (i.p.) to challenge the tolerance to glucose. Drops of blood were obtained from the tail at 0, 30, 60, 120, 180 and 240 minutes post injection. Glucose was estimated using commercial glucose strips (Lifescan, One Touch Ultra, […], Calif.).

Blood chemistries = format: in vivo, Zucker Fatty Rats; conditions: Experiment 2; for ALP (alkaline phosphatase) / ALT (alanine aminotransferase) / AST (aspartate aminotransferase) / BUN / CO2 / Calcium / Chloride / Cholesterol / Creatinine / Glucose / Potassium / Sodium / Triglycerides: blood at end of study
Source text: Blood for chemical analysis was obtained at the end of the study following removal of food four hours earlier. Blood chemistry values were obtained via dry chemistry procedures using a Johnson and Johnson (Langhorne, Pa.) Vitros® 250 instrument.

TNF-α = test: Cytokine assay (ELISA), TNF-α; format: in vivo, Zucker Fatty Rats; conditions: Experiment 2
Procedure: (§1) Various cytokines were measured by ELISA methodology using kits from the following sources: rat MCP-1—Assay Designs Inc., Ann Arbor, Mich.; rat adiponectin—ALPCO Diagnostics, Salem, N.H.; TNF-a, ALPCO Diagnostics, Salem, N.H.; RAT IL-1B—Assay Designs Inc, Ann Arbor, Mich.; RAT IL-6—ALPCO Diagnostics, Salem, N.H.

adiponectin = test: Cytokine assay (ELISA), adiponectin; format: in vivo, Zucker Fatty Rats; conditions: Experiment 2
Procedure: as §1

IL-1B = test: Cytokine assay (ELISA), IL-1B; format: in vivo, Zucker Fatty Rats; conditions: Experiment 2
Procedure: as §1

DNA fragmentation = DNA fragmentation in liver and kidney; format: in vivo, Zucker Fatty Rats; conditions: Experiment 2; for DNA Fragmentation, Kidney / DNA Fragmentation, Liver: percentage of total DNA in the supernatant fraction
Procedure: Frozen liver and kidney samples were homogenized in lysis buffer (5 mM Tris-HCl, 20 mM EDTA, 0.5% Triton X-100, pH 8.0). Homogenates were centrifuged at 27,000 g for 20 min to separate intact chromatin in the pellet from fragmented DNA in the supernatant fraction. Pellets were re-suspended in 0.5 M perchloric acid and 5.5 M perchloric acid was added to supernatant samples to reach a concentration of 0.5 M. Samples were heated at 90° C. for 15 min and centrifuged at 1,500 g for 10 min to remove protein. Resulting supernatants were reacted with diphenylamine for 16-20 h at room temperature. Absorbance was measured at 600 nm. DNA fragmentation in control samples was expressed as percentage of total DNA appearing in the supernatant fraction. Treatment effects are reported as percent of control fragmentation.

[3] = Hi Asta, astaxanthin 25 mg/kg in feed
[4] = Lo Asta, astaxanthin 5 mg/kg in feed

CC1=C(/C=C/C(C)=C/C=C/C(C)=C/C=C/C=C(C)/C=C/C=C(C)/C=C/C2=C(C)C(=O)[C@@H](O)CC2(C)C)C(C)(C)C[C@H](O)C1=O [Asta, astaxanthin]
Insulin: decrease in circulating glucose after insulin challenge (ICT) (Zucker Fatty Rats (ZFR) [1]; [3]): -7.6 ± 2.5 mg/dL | Insulin: decrease in circulating glucose after insulin challenge (ICT) (Zucker Fatty Rats (ZFR) [1]; [4]): -8.5 ± 4.1 mg/dL | insulin concentration one hour after the glucose challenge (Zucker Fatty Rats (ZFR) [2]; [3]): 2.23 ng/mL | insulin concentration one hour after the glucose challenge (Zucker Fatty Rats (ZFR) [2]; [4]): 2.15 ng/mL | Baseline insulin concentration (Zucker Fatty Rats (ZFR) [2]; [3]): 0.90 ng/mL | average baseline glucose level (Zucker Fatty Rats (ZFR) [2]; [3]): 406 mg/dL | Baseline insulin concentration (Zucker Fatty Rats (ZFR) [2]; [4]): 0.80 ng/mL | average baseline glucose level (Zucker Fatty Rats (ZFR) [2]; [4]): 346 mg/dL | area under the curve after glucose challenge vs control (Zucker Fatty Rats (ZFR) [2]; six rats per group, Hi Asta, astaxanthin 25 mg/kg in feed): statistically significant lower average reading than control | renal damage (elevations in BUN and creatinine concentrations) (Blood chemistries; [3]): none of the ZFR in the Hi Asta group showed any evidence of elevations | renal damage (increased circulating urea, creatinine and potassium) (Blood chemistries; [4]): evidence of renal damage occurred in three ZFR | ALP (alkaline phosphatase) (Blood chemistries; [3]): 331 ± 27.3 U/L | ALT (alanine aminotransferase) (Blood chemistries; [3]): 86.2 ± 13.7 units | AST (aspartate aminotransferase) (Blood chemistries; [3]): 106.1 ± 21.0 units | BUN (Blood chemistries; [3]): 15.0 ± 0.5 mg/dL | CO2 (Blood chemistries; [3]): 23.5 ± 0.5 mM | Calcium (Blood chemistries; [3]): 11.4 ± 0.1 mg/dL | Chloride (Blood chemistries; [3]): 98.9 ± 0.8 mM | Cholesterol (Blood chemistries; [3]): 314.0 ± 13.6 mg/dL | Creatinine (Blood chemistries; [3]): 0.5 ± 0.01 mg/dL | Glucose (Blood chemistries; [3]): 327.0 ± 14.2 mg/dL | Potassium (Blood chemistries; [3]): 6 ± 0.13 mM | Sodium (Blood chemistries; [3]): 142 ± 0.8 mM | Triglycerides (Blood chemistries; [3]): 1172.0 ± 51.2 mg/dL | ALP (alkaline phosphatase) (Blood chemistries; [4]): 364 ± 33.4 U/L | ALT (alanine aminotransferase) (Blood chemistries; [4]): 70.9 ± 12.4 units | AST (aspartate aminotransferase) (Blood chemistries; [4]): 105.8 ± 20.9 units | BUN (Blood chemistries; [4]): 25.3 ± 5.4 mg/dL | CO2 (Blood chemistries; [4]): 22.5 ± 1 mM | Calcium (Blood chemistries; [4]): 11.3 ± 0.2 mg/dL | Chloride (Blood chemistries; [4]): 98.4 ± 0.7 mM | Cholesterol (Blood chemistries; [4]): 308.0 ± 27.8 mg/dL | Creatinine (Blood chemistries; [4]): 0.6 ± 0.90 mg/dL | Glucose (Blood chemistries; [4]): 317.0 ± 30.6 mg/dL | Potassium (Blood chemistries; [4]): 6.5 ± 0.04 mM | Sodium (Blood chemistries; [4]): 141 ± 0.7 mM | Triglycerides (Blood chemistries; [4]): 1167.0 ± 71.6 mg/dL | TNF-α (TNF-α; [3]): 294.0 ± 13.0 | TNF-α (TNF-α; [4]): 349.0 ± 11.9 | Adiponectin (adiponectin; [3]): 4.03 ± 0.40 | Adiponectin (adiponectin; [4]): 4.11 ± 0.27 | IL-1β (IL-1B; [3]): 440.0 ± 25.5 | IL-1β (IL-1B; [4]): 490.0 ± 21.7 | DNA Fragmentation (% Control), Kidney (DNA fragmentation; [3]): 100 % Control | DNA Fragmentation (% Control), Liver (DNA fragmentation; [3]): 103 % Control | DNA Fragmentation (% Control), Kidney (DNA fragmentation; [4]): 102 % Control | DNA Fragmentation (% Control), Liver (DNA fragmentation; [4]): 108 % Control | DNA Fragmentation, Kidney (DNA fragmentation; [3]): 4.3 ± 0.48 | DNA Fragmentation, Liver (DNA fragmentation; [3]): 4.1 ± 0.33 | DNA Fragmentation, Kidney (DNA fragmentation; [4]): 4.4 ± 0.37 | DNA Fragmentation, Liver (DNA fragmentation; [4]): 4.3 ± 0.38

C[C@H](CS)C(=O)N1CCC[C@H]1C(=O)O [Captopril, reference compound]
Insulin: decrease in circulating glucose after insulin challenge (ICT) (Zucker Fatty Rats (ZFR) [1]; captopril 30 mg/kg in feed): -9.8 ± 3.5 mg/dL | insulin concentration one hour after the glucose challenge (Zucker Fatty Rats (ZFR) [2]; captopril 30 mg/kg in feed): 2.37 ng/mL | Baseline insulin concentration (Zucker Fatty Rats (ZFR) [2]; captopril 30 mg/kg in feed): 0.82 ng/mL | average baseline glucose level (Zucker Fatty Rats (ZFR) [2]; captopril 30 mg/kg in feed): 302 mg/dL | ALP (alkaline phosphatase) (Blood chemistries; captopril 30 mg/kg in feed): 333 ± 22.1 U/L | ALT (alanine aminotransferase) (Blood chemistries; captopril 30 mg/kg in feed): 89.4 ± 13.9 units | AST (aspartate aminotransferase) (Blood chemistries; captopril 30 mg/kg in feed): 93.0 ± 12.8 units | BUN (Blood chemistries; captopril 30 mg/kg in feed): 14.0 ± 0.5 mg/dL | CO2 (Blood chemistries; captopril 30 mg/kg in feed): 24.1 ± 0.9 mM | Calcium (Blood chemistries; captopril 30 mg/kg in feed): 11.3 ± 0.6 mg/dL | Chloride (Blood chemistries; captopril 30 mg/kg in feed): 98.6 ± 1 mM | Cholesterol (Blood chemistries; captopril 30 mg/kg in feed): 281.0 ± 15.6 mg/dL | Creatinine (Blood chemistries; captopril 30 mg/kg in feed): 0.4 ± 0.02 mg/dL | Glucose (Blood chemistries; captopril 30 mg/kg in feed): 327.0 ± 23.0 mg/dL | Potassium (Blood chemistries; captopril 30 mg/kg in feed): 6 ± 0.04 mM | Sodium (Blood chemistries; captopril 30 mg/kg in feed): 140 ± 0.5 mM | Triglycerides (Blood chemistries; captopril 30 mg/kg in feed): 1029.0 ± 73.6 mg/dL | TNF-α (TNF-α; captopril 30 mg/kg in feed): 242.0 ± 13.6 | Adiponectin (adiponectin; captopril 30 mg/kg in feed): 4.27 ± 0.39 | IL-1β (IL-1B; captopril 30 mg/kg in feed): 416.0 ± 14.8 | DNA Fragmentation (% Control), Kidney (DNA fragmentation; captopril 30 mg/kg in feed): 105 % Control | DNA Fragmentation (% Control), Liver (DNA fragmentation; captopril 30 mg/kg in feed): 100 % Control | DNA Fragmentation, Kidney (DNA fragmentation; captopril 30 mg/kg in feed): 4.5 ± 0.51 | DNA Fragmentation, Liver (DNA fragmentation; captopril 30 mg/kg in feed): 4.0 ± 0.17
